Data taken from ChEMBL document CHEMBL3603748, “Design of HIV-1 Protease Inhibitors with Amino-bis-tetrahydrofuran Derivatives as P2-Ligands to Enhance Backbone-Binding Interactions: Synthesis, Biological Evaluation, and Protein-Ligand X-ray Studies” (J Med Chem, 2015).

Key:
[1] = molecular target: Protease (Human immunodeficiency virus 1, UniProt Q9YQ12); assay: Inhibition of HIV1 protease
[2] = system: Human immunodeficiency virus 1; assay: Antiviral activity against HIV1 LAI infected in human MT2 cells; format: functional, organism-based; settings: Human immunodeficiency virus 1, LAI
[3] = system: Human immunodeficiency virus 1; assay: Antiviral activity against darunavir-resistant HIV1 P10 infected in human MT4 cells by XTT assay; format: functional, organism-based; settings: Human immunodeficiency virus 1, P10, MT4
[4] = system: Human immunodeficiency virus 1; assay: Antiviral activity against HIV1 NL4-3 infected in human MT4 cells by XTT assay; format: functional, organism-based; settings: Human immunodeficiency virus 1, NL4-3, MT4
[5] = system: Human immunodeficiency virus 1; assay: Antiviral activity against darunavir-resistant HIV1 P51 infected in human MT4 cells by XTT assay; format: functional, organism-based; settings: Human immunodeficiency virus 1, P51, MT4
[6] = system: Human immunodeficiency virus 1; assay: Antiviral activity against darunavir-resistant HIV1 P20 infected in human MT4 cells by XTT assay; format: functional, organism-based; settings: Human immunodeficiency virus 1, P20, MT4
[7] = system: Human immunodeficiency virus 1; assay: Resistance index, ratio of EC50 for darunavir-resistant HIV1 P20 infected in human MT4 cells by XTT assay to EC50 for HIV1 NL4-3 infected in human MT4 cells by XTT assay; format: functional

Sequence of Protease (Q9YQ12 whole entry): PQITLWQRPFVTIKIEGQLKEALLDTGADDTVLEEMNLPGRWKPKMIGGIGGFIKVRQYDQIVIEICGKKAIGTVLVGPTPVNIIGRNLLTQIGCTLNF

Row | Ki [1] [nM] | IC50 [2] [nM] | SMILES | EC50 [3] [nM] | EC50 [4] [nM] | EC50 [5] [nM] | EC50 [6] [nM] | Ratio EC50 [7]
1 | 0.048 | – | CCN(C(=O)OC(C)(C)C)[C@H]1CO[C@@H]2OC[C@H](OC(=O)N[C@@H](Cc3ccccc3)[C@H](O)CN(CC(C)C)S(=O)(=O)c3ccc(OC)cc3)[C@@H]21 | – | – | – | – | –
2 | 0.014 | 4.4 | COc1ccc(S(=O)(=O)N(CC(C)C)C[C@@H](O)[C@H](Cc2ccccc2)NC(=O)O[C@H]2CO[C@H]3OC[C@H](NC(=O)OC(C)(C)C)[C@H]32)cc1 | – | – | – | – | –
3 | 0.0099 | 480 | CN[C@H]1CO[C@@H]2OC[C@H](OC(=O)N[C@@H](Cc3ccccc3)[C@H](O)CN(CC(C)C)S(=O)(=O)c3ccc(N)cc3)[C@@H]21 | – | – | – | – | –
4 | 0.014 | 4.4 | COc1ccc(S(=O)(=O)N(CC(C)C)C[C@@H](O)[C@H](Cc2ccccc2)NC(=O)O[C@H]2CO[C@H]3OC[C@H](N(C)C)[C@H]32)cc1 | – | – | – | – | –
5 | 0.014 | 7.2 | CCN(CC)[C@H]1CO[C@@H]2OC[C@H](OC(=O)N[C@@H](Cc3ccccc3)[C@H](O)CN(CC(C)C)S(=O)(=O)c3ccc(OC)cc3)[C@@H]21 | – | – | – | – | –
6 | 0.012 | 37 | COc1ccc(S(=O)(=O)N(CC(C)C)C[C@@H](O)[C@H](Cc2ccccc2)NC(=O)O[C@H]2CO[C@H]3OC[C@H](N(C)C(=O)OC(C)(C)C)[C@H]32)cc1 | – | – | – | – | –
7 | 0.024 | 3.7 | COC(=O)N[C@H]1CO[C@@H]2OC[C@H](OC(=O)N[C@@H](Cc3ccccc3)[C@H](O)CN(CC(C)C)S(=O)(=O)c3ccc(OC)cc3)[C@@H]21 | – | – | – | – | –
8 | 0.53 | 48 | COc1ccc(S(=O)(=O)N(CC(C)C)C[C@@H](O)[C@H](Cc2ccccc2)NC(=O)O[C@H]2CO[C@H]3OC[C@H](N)[C@H]32)cc1 | – | – | – | – | –
9 | 0.0039 | 4.4 | COc1ccc(S(=O)(=O)N(CC(C)C)C[C@@H](O)[C@H](Cc2ccccc2)NC(=O)O[C@H]2CO[C@H]3OC[C@H](N=[N+]=[N-])[C@H]32)cc1 | – | – | – | – | –

Row | SMILES | Ki [1] [nM] | IC50 [2] [nM] | EC50 [3] [nM] | EC50 [4] [nM] | EC50 [5] [nM] | EC50 [6] [nM] | Ratio EC50 [7]
10 | CCN[C@H]1CO[C@@H]2OC[C@H](OC(=O)N[C@@H](Cc3ccccc3)[C@H](O)CN(CC(C)C)S(=O)(=O)c3ccc(OC)cc3)[C@@H]21 | 0.027 | 22 | 39 | 15 | 230 | – | –
11 | COc1ccc(S(=O)(=O)N(CC(C)C)C[C@@H](O)[C@H](Cc2ccccc2)NC(=O)O[C@H]2CO[C@H]3OC[C@H](NC(C)C)[C@H]32)cc1 | 0.0063 | 0.34 | 21 | 1 | 260 | 24 | 23
12 | CN[C@H]1CO[C@@H]2OC[C@H](OC(=O)N[C@@H](Cc3ccccc3)[C@H](O)CN(CC(C)C)S(=O)(=O)c3ccc(OC)cc3)[C@@H]21 | 0.0015 | 35 | – | 29 | – | 32 | 1.1
